Assay results reported in US20230172201A1, “Use of 4-Phenylbutyric Acid and/or 3-Phenylbutyric Acid and/or 2-Phenylbutyric Acid in Preventing and Treating Cryptogamic Diseases” (Institut National de Recherche Pour L'Agriculture, …, priority 2020, published 2023).
Like-named read-outs stand apart in the source and are kept apart here.

Columns and labels:
[1] = test system: Arabidopsis thaliana (ecotype Col-0); assay: Effect of watering with 4-PBA on vegetative growth (rosette weight); format: in vivo; conditions: watering with 1 mM once a week for 4 weeks
Description: Material and Methods. The seeds of A. thaliana (ecotype Col-0) were sown in individual pots directly on compost without a prior step of stratification. […] These plants were then separated into 2 batches with 12 plants each, one watered with distilled water, the other with a solution of 4-PBA at a final concentration of 1 mM. In practice, watering took place once a week on a fixed day and at a fixed time, for 4 consecutive weeks (FIG. 5a). […] The rosette of each of the plantlets was then weighed to evaluate the effect of watering with 4-PBA on vegetative growth.

Alternaria solani = assay: Radial growth of the mycelium; format: cell-based; conditions: 528 h
Sclerotinia sclerotorum = assay: Radial growth of the mycelium; format: cell-based; conditions: 168 h
[2] = test system: Botrytis cinerea (BMM strain); assay: Radial growth of the mycelium on solid PDA medium
Description: The BMM strain of the fungus B. cinerea was cultured for about 10 days on solid PDA medium (24 g/L of PDB and 15 g/L of agar) in the dark and at a temperature of 22° C. A cylinder of agar comprising the mycelium at its top was then cut out with a sterile punch with a diameter of 6 mm, and was then deposited at the center of round Petri dishes (9 cm diameter) containing PDA medium supplemented or not with 4-PBA. 4-PBA, prepared extemporaneously, was added directly to the molten culture medium to final concentrations of 1, 2 and 5 mM. Controls were prepared by adding a volume of sterile water equivalent to the highest concentration of 4-PBA. The dishes were kept in the dark at a temperature of 22° C. throughout the experiment. […] For this, the following linear regression was used: Degree of inhibition (%)=f(ln[4-PBA]).

[3] = test system: Botrytis cinerea (BMM strain); assay: Mycelial development in liquid medium, absorbance at 600 nm (nephelometry); format: cell-based; conditions: 1 mM
[4] = test system: Botrytis cinerea (BMM strain); assay: Germination of the spores and growth of the primary hypha in liquid medium; format: cell-based; conditions: 16 to 18 hours
[5] = test system: Botrytis cinerea (BMM strain); assay: Protection of grapevine foliar disks against gray rot, B. cinerea spore inoculum with or without 4-PBA; format: in vivo; conditions: grapevine cv. Gamay foliar disks; 4-PBA 1 mM; 5·10^4 spores/mL; 3 days
Description: Material and Methods. A commercial variety of grapevine (Vitis […], cultivar Gamay) was grown in a greenhouse for 6 weeks. […] The inoculum was prepared as mentioned above for the experiments carried out with A. thaliana. A volume of 6 μL was deposited on each disk. The infected disks were incubated as for the experiments carried out on foliar disks of tomato. The disease symptoms were photographed and quantified 3 days after infection from the distribution of the lesions as a function of their diameter and by measuring the largest diameter of the lesions. […] The results presented in FIG. 4 correspond to the mean values±standard deviation.

Fusarium graminearum = assay: microbe, parasite or virus in culture; format: cell-based
Fusarium verticilloides = assay: Radial growth of the mycelium; format: cell-based; conditions: 288 h
Zymoseptoria tritici = assay: Growth of the primary hypha on PG solid medium; format: cell-based
[6] = test system: Arabidopsis thaliana (ecotype Col-0); assay: Phytotoxicity after leaf infiltration; format: in vivo; conditions: 0.5 or 1 mM; 48 hours after infiltration
Description: Material and Methods. Seeds of A. thaliana (ecotype Col-0) were sown in individual pots directly on compost without a prior step of stratification. […] The experiment was repeated 3 times. Each experiment included about ten plants. Six leaves representative of the 3 experiments were photographed 48 hours after infiltration (FIG. 5c).

Magnaporthe oryzae = assay: microbe, parasite or virus in culture; format: cell-based; conditions: Pyricularia oryzae, 336 h
[7] = test system: Colletrotrichum lindemuthianum; assay: Radial growth of the mycelium; format: cell-based
Cercospora beticola = assay: Radial growth of the mycelium; format: cell-based; conditions: 528 h
Phytophthora parasitica = assay: Radial growth of the oomycete; format: cell-based
Phytophthora capsici = assay: Radial growth of the oomycete; format: cell-based
[8] = test system: Fusarium oxysporum f. sp melonis; assay: Radial growth of the mycelium; format: cell-based; conditions: 288 h
Helmintosporium teres = assay: Radial growth of the mycelium; format: cell-based
Leptosphaeria maculans = assay: Radial growth of the mycelium; format: cell-based; conditions: Plenodomus lingam, 432 h, time 18 days
Alternaria brassicicola = assay: Radial growth of the mycelium; format: cell-based; conditions: 240 h; for inhibition at 1000 µM / inhibition at 2000 µM / inhibition at 5000 µM: time 10 days
[9] = test system: Botrytis cinerea (BMM strain); assay: Protection of tomato foliar disks against gray rot, B. cinerea spore inoculum with or without compound; format: in vivo; conditions: for proportion of lesions larger than 4 mm in diameter: tomato Moneymaker foliar disks, 3 days; for median ratio of gDNA of the fungus to that of the plant, times lower than fungus alone / decrease of the average diameter of the lesions: tomato Moneymaker
[10] = test system: Botrytis cinerea (BMM strain); assay: Protection of thale cress leaves against gray rot, B. cinerea spore inoculum with or without 4-PBA; format: in vivo; conditions: A. thaliana Col-0 leaves, 4-PBA 1 mM in inoculum
[11] = test system: Phanerochaete chrysosporium; assay: Radial growth of the mycelium; format: cell-based
[12] = time 22 days (day control colonized the whole Petri dish)
[13] = lowest concentration tested (1 mM)
[14] = time 12 days (day control colonized the whole Petri dish)
[15] = radial growth EC50 compared with B. cinerea

## O=C(O)CCCc1ccccc1 [4-PBA, 4-Phenylbutyric acid]
[1]
  effect on the aerial biomass: no effect
Alternaria solani; 1 mM 4-PBA, time 22 days
  inhibition at 1000 µM: 25%
Alternaria solani; 2 mM 4-PBA, time 22 days
  inhibition at 2000 µM: 62%
Alternaria solani; 5 mM 4-PBA, time 22 days
  inhibition at 5000 µM: 100%
Alternaria solani; [12]
  EC50: 1650 µM
Sclerotinia sclerotorum; 1 mM 4-PBA, time 7 days
  inhibition at 1000 µM: 0%
Sclerotinia sclerotorum; 2 mM 4-PBA, time 7 days
  inhibition at 2000 µM: 73%
Sclerotinia sclerotorum; 5 mM 4-PBA, time 7 days
  inhibition at 5000 µM: 100%
Sclerotinia sclerotorum; time 7 days (day control colonized the whole Petri dish)
  EC50: 1900 µM
[2]; 5 mM in culture medium
  persistence of the active principle: up to 23 days
[2]; 1, 2 and 5 mM in PDA, 26 days
  radial growth of the mycelium: dose-dependent slowing
[2]; Botrytis cinerea, read-out: EC50 (median inhibitory concentration, radial growth halved)
  EC50: 2000 to 3000 µM
[3]; 4 days, Example 3
  repression of mycelial growth measured by nephelometry: 94%
[3]; Botrytis cinerea, 96 h, incubation for 4 days, Example 4, read-out: degree of inhibition
  inhibition at 1000 µM: 97%
[4]; 4-PBA 0.1 mM
  germination rate of the spores: 100%
[4]; Botrytis cinerea, 1 mM
  inhibition at 1000 µM: 86%
[4]; liquid PDB
  concentration from which growth of the primary hypha is limited: ≥ 0.1 mM
[5]
  decrease in the average diameter of the lesions: ~75%
Fusarium graminearum; Fusarium graminearum, 144 h
  inhibition at 1000 µM: 48%
  inhibition at 2000 µM: 97%
  inhibition at 5000 µM: 99%
Fusarium graminearum; [13]
  persistence of the molecule: up to 10 days
Fusarium verticilloides; 1 mM 4-PBA, time 12 days
  inhibition at 1000 µM: 66%
Fusarium verticilloides; 2 mM 4-PBA, time 12 days
  inhibition at 2000 µM: 74%
Fusarium verticilloides; 5 mM 4-PBA, time 12 days
  inhibition at 5000 µM: 98%
Fusarium verticilloides; [14]
  EC50: 500 µM
Zymoseptoria tritici; 48 h, isolate 14-FT-A1, 48 hours
  EC50: 245 µg/mL
Zymoseptoria tritici; 48 h, isolate 14-FT-A1, 48 hours, read-out: EC50
  EC50: 1320 µM
Zymoseptoria tritici; 48 h, isolate 37-30, 48 hours
  EC50: 163 µg/mL
Zymoseptoria tritici; 48 h, isolate 37-30, 48 hours, read-out: EC50
  EC50: 874 µM
Zymoseptoria tritici; 48 h, isolate 37-41, 48 hours
  EC50: 164 µg/mL
Zymoseptoria tritici; 48 h, isolate 37-41, 48 hours, read-out: EC50
  EC50: 880 µM
Zymoseptoria tritici; 48 h, isolate 11183, 48 hours
  EC50: 196 µg/mL
Zymoseptoria tritici; 48 h, isolate 11183, 48 hours, read-out: EC50
  EC50: 1050 µM
Zymoseptoria tritici; 48 h, isolate IPO-323, 48 hours
  EC50: 122 µg/mL
Zymoseptoria tritici; 48 h, isolate IPO-323, 48 hours, read-out: EC50
  EC50: 657 µM
Zymoseptoria tritici; 48 h, isolate ST5548, 48 hours
  EC50: 246 µg/mL
Zymoseptoria tritici; 48 h, isolate ST5548, 48 hours, read-out: EC50
  EC50: 1320 µM
Zymoseptoria tritici; 48 h, isolate STDP-047915, 48 hours
  EC50: 212 µg/mL
Zymoseptoria tritici; 48 h, isolate STDP-047915, 48 hours, read-out: EC50
  EC50: 1140 µM
Zymoseptoria tritici; six isolates resistant to conventional fungicides, read-out: EC50 calculated for all of these isolates, order of magnitude
  EC50: ~1000 µM
[6]
  macroscopic symptoms after infiltration of the leaves: absence of macroscopic symptoms
Magnaporthe oryzae
  EC50: 1330 µM
  inhibition at 1000 µM: 39%
  inhibition at 2000 µM: 66%
  inhibition at 5000 µM: 100%
[7]; 288 h, 1 mM 4-PBA, time 12 days
  inhibition at 1000 µM: 67%
[7]; 288 h, 2 mM 4-PBA, time 12 days
  inhibition at 2000 µM: 75%
[7]; 288 h, 5 mM 4-PBA, time 12 days
  inhibition at 5000 µM: 97%
[7]; 288 h, time 12 days (day control colonized the whole Petri dish)
  EC50: 450 µM
[7]; [13]
  persistence of the molecule: ≤ 30 days
Cercospora beticola; 1 mM 4-PBA, time 22 days
  inhibition at 1000 µM: 0%
Cercospora beticola; 2 mM 4-PBA, time 22 days
  inhibition at 2000 µM: 13%
Cercospora beticola; 5 mM 4-PBA, time 22 days
  inhibition at 5000 µM: 67%
Cercospora beticola; [12]
  EC50: 2810 µM
Phytophthora parasitica; 2 and 5 mM
  growth at higher concentrations: complete absence of growth for 20 days
Phytophthora parasitica; Phytophthora nicotianae, 240 h, 1 mM 4-PBA, time 10 days
  inhibition at 1000 µM: 95%
Phytophthora parasitica; Phytophthora nicotianae, 240 h, 2 mM 4-PBA, time 10 days
  inhibition at 2000 µM: 99%
Phytophthora parasitica; Phytophthora nicotianae, 240 h, 5 mM 4-PBA, time 10 days
  inhibition at 5000 µM: 100%
Phytophthora parasitica; Phytophthora nicotianae, 240 h, time 10 days (day control colonized the whole Petri dish)
  EC50: 0.00024 µM
Phytophthora parasitica; Table 2 and FIG. 6b
  difference between EC50 calculated for B. cinerea and for P. parasitica: 7 orders of magnitude
Phytophthora parasitica; [15]
  times more sensitive to the molecule than B. cinerea: about 12 million
Phytophthora capsici; 2 and 5 mM
  growth at higher concentrations: complete absence of growth for 20 days
Phytophthora capsici; Phytophthora capsici, 216 h, 1 mM 4-PBA, time 9 days
  inhibition at 1000 µM: 90%
Phytophthora capsici; Phytophthora capsici, 216 h, 2 mM 4-PBA, time 9 days
  inhibition at 2000 µM: 100%
Phytophthora capsici; Phytophthora capsici, 216 h, 5 mM 4-PBA, time 9 days
  inhibition at 5000 µM: 100%
[8]; 1 mM 4-PBA, time 12 days
  inhibition at 1000 µM: 68%
[8]; 2 mM 4-PBA, time 12 days
  inhibition at 2000 µM: 80%
[8]; 5 mM 4-PBA, time 12 days
  inhibition at 5000 µM: 99%
[8]; [14]
  EC50: 400 µM
Helmintosporium teres; 240 h, 1 mM 4-PBA, time 10 days
  inhibition at 1000 µM: 94%
Helmintosporium teres; 240 h, 2 mM 4-PBA, time 10 days
  inhibition at 2000 µM: 97%
Helmintosporium teres; 240 h, 5 mM 4-PBA, time 10 days
  inhibition at 5000 µM: 100%
Helmintosporium teres; 240 h, time 10 days (day control colonized the whole Petri dish)
  EC50: 0.00665 µM
Helmintosporium teres; [13]
  persistence of the molecule: ≤ 30 days
Helmintosporium teres; [15]
  EC50 times lower than that of B. cinerea: 450 000 times
Leptosphaeria maculans; 1 mM 4-PBA
  inhibition at 1000 µM: 73%
Leptosphaeria maculans; 2 mM 4-PBA
  inhibition at 2000 µM: 99%
Leptosphaeria maculans; 5 mM 4-PBA
  inhibition at 5000 µM: 99%
Alternaria brassicicola; strain 1, 1 mM 4-PBA
  inhibition at 1000 µM: 70%
Alternaria brassicicola; strain 1, 2 mM 4-PBA
  inhibition at 2000 µM: 88%
Alternaria brassicicola; strain 1, 5 mM 4-PBA
  inhibition at 5000 µM: 97%
Alternaria brassicicola; strain 1, time 10 days
  EC50: 260 µM
Alternaria brassicicola; strain 1509, 1 mM 4-PBA
  inhibition at 1000 µM: 58%
Alternaria brassicicola; strain 1509, 2 mM 4-PBA
  inhibition at 2000 µM: 81%
Alternaria brassicicola; strain 1509, 5 mM 4-PBA
  inhibition at 5000 µM: 96%
Alternaria brassicicola; strain 1509, time 10 days
  EC50: 640 µM
[9]; tomato M82 foliar disks, 0.5 to 2.5 mM
  average diameters of the foliar lesions as a function of concentration: gradual decrease
[9]; tomato M82 foliar disks, 4-PBA 1 mM
  efficacy of protection compared with the Moneymaker variety: equivalent efficacy
[9]; 4-PBA 1 mM, 5·10^4 spores/mL
  proportion of lesions larger than 4 mm in diameter: 15%
[9]; 4-PBA 1 mM, 5·10^5 spores/mL
  proportion of lesions larger than 4 mm in diameter: 23%
  median ratio of gDNA of the fungus to that of the plant, times lower than fungus alone: 10 times
[9]; 4-PBA 1 mM, 5·1^04 spores/mL
  median ratio of gDNA of the fungus to that of the plant, times lower than fungus alone: 40 times
[9]; 4-PBA 1 mM, highest concentration of spores (5·10^5 spores/mL)
  decrease of the average diameter of the lesions: 58%
[9]; 4-PBA 1 mM, lowest concentration of spores (5·10^4 spores/mL)
  decrease of the average diameter of the lesions: 68%
[10]; 5·10^4 spores/mL, 4 days after inoculation
  leaves that did not display symptoms: 37%
[10]; 4 days after inoculation
  proportion of lesions whose diameter was greater than 4 mm: 23%
[10]; 4 days, relative to fungus alone
  average diameter of the lesions divided by: 2.2 times
[10]; quantitative PCR
  ratio of gDNA of the fungus to that of the plant, median decrease by a factor: 10
[11]; 4-PBA 1 mM
  time for the fungus to overcome supplementation of the culture medium: 14 days
[11]; Phanerodontia chrysosporium, 96 h, 1 mM 4-PBA, time 4 days
  inhibition at 1000 µM: 99%
[11]; Phanerodontia chrysosporium, 96 h, 2 mM 4-PBA, time 4 days
  inhibition at 2000 µM: 100%
[11]; Phanerodontia chrysosporium, 96 h, 5 mM 4-PBA, time 4 days
  inhibition at 5000 µM: 100%
[11]; final concentrations of 2 and 5 mM
  development at higher concentrations: unable to develop
